Values of other authors as cited in patent US20100015174A1, “METHOD TO CONTROL DENGUE VIRUSES IN HUMANS BY PICOLINIC ACID AND DERIVATIVES THEREOF” (priority 2008, published 2010).

Experiments:
[1] = test system: human aortic endothelial cells; conditions: cited from earlier work
J2 retrovirus = conditions: GG2EE transformed macrophages; cited from earlier work

## O=C(O)c1cccnc1 [Niacin, Nicotinic acid]
[1]
  change of reactive oxygen species (ROS): > 50%
  change of vascular adhesion molecules (VCAM-I): 80%
  increase of NAD(P)H levels: 54%

## IFN-gamma: type II (immune) interferon
J2 retrovirus
  J2 retrovirus expression: not affected
